This note sets out measurements from ChEMBL document CHEMBL5465560, “Selectivity Literature for EUbOPEN Chemogenomic Library” (2024).

In experiment [1] the target is Insulin-like growth factor 1 receptor (Homo sapiens, UniProt P08069). The experiment in a line: Selectivity interaction (Kinase panel (Z-LYTE Assay)) EUB0001632a IGF1R. The settings on record: at 10 µM.
Experiment [2] has as its target Ribosomal protein S6 kinase alpha-3 (Homo sapiens, UniProt P51812). The experiment is described as follows: Selectivity interaction (Kinase panel (KiNativ target engagement assay in Jurkat cells)) EUB0001635a RPS6KA3. The following applies: Selectivity number of off-targets 0.0, Selectivity number of targets 233.0, Source Knowledge https://www.sciencedirect.com/science/article/pii/S2451945619300674?via%3Dihub, at 1 µM. In kind it is cell-based.

Experiment [3] concerns Tyrosine-protein kinase ABL1 (Homo sapiens), P00519 [H396P]. The experiment is described as follows: Selectivity interaction (Ambit KINOMEscan and KiNATiv profiling in Jurkat cells) EUB0000090b ABL1. The experiment is classed as cell-based. The settings on record: at 1 µM.
Experiment [4] in a line: Selectivity interaction (KinomeScan (DiscoverX)) EUB0000666a CDK2H. The settings on record: at 10 µM.
Experiment [5] has as its target Mitogen-activated protein kinase 9 (Homo sapiens, UniProt P45984). The experiment is described as follows: Selectivity interaction (KinomeScan (DiscoverX)) EUB0001079a MAPK9. The settings on record: at 1 µM.
Experiment [6] concerns the target T1, Rhodopsin kinase GRK1 (Homo sapiens) (UniProt Q15835).
T1 sequence (whole entry): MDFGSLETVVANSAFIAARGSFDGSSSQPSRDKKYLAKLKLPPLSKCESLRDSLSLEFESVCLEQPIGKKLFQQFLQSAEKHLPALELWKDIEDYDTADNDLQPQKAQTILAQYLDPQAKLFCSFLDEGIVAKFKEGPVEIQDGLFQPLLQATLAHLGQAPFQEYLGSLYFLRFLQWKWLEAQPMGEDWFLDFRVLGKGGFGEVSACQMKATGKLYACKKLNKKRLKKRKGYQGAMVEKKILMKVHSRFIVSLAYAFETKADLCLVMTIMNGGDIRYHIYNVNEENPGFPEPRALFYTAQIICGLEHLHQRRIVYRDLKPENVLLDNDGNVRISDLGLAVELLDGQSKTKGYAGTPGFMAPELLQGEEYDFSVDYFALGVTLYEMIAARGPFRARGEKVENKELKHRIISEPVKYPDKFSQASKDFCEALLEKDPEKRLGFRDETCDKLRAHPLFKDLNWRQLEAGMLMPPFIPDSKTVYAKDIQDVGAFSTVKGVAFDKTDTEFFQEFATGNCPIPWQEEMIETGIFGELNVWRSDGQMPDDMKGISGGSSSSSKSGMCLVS
The experiment in a line: Selectivity interaction (KinomeScan (DiscoverX)) EUB0001079a GRK1. The following applies: at 1 µM.

In experiment [7] the target is Angiopoietin-1 receptor (Homo sapiens) (UniProt Q02763). The experiment is described as follows: Selectivity interaction (KinaseProfiler screening (Millipore)) EUB0000601a TEK. The following applies: at 3 µM.
Chain of Angiopoietin-1 receptor (Homo sapiens) (Q02763 whole entry): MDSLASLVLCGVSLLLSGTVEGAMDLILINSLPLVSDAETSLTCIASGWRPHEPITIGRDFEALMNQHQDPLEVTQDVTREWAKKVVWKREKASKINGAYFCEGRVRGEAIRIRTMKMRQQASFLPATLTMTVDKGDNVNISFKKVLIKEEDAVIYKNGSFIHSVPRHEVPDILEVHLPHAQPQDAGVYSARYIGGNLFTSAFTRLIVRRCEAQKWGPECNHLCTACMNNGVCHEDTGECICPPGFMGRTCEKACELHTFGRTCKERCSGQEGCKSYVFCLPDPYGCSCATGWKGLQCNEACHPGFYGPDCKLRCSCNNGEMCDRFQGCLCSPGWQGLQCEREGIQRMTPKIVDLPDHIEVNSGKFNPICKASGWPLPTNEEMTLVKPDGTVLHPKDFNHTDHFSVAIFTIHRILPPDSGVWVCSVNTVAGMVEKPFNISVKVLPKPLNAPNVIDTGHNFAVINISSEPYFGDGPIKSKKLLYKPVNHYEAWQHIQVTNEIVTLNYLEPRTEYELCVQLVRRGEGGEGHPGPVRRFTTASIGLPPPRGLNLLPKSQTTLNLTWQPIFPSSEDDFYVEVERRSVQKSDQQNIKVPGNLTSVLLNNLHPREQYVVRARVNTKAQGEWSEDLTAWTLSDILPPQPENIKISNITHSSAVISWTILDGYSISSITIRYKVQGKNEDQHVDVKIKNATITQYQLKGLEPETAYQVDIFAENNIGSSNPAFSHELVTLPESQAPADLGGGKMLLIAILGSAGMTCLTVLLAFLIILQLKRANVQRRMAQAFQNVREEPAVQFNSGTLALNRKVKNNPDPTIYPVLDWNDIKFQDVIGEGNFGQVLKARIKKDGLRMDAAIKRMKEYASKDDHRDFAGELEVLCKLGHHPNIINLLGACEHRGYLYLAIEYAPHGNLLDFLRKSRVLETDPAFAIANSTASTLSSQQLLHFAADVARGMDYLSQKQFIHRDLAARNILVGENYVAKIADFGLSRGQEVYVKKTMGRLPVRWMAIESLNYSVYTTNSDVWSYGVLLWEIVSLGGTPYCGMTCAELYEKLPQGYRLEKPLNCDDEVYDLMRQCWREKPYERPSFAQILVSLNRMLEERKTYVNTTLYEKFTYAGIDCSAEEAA
Experiment [8] deals with SRSF protein kinase 1 (Homo sapiens, UniProt Q96SB4). The experiment is described as follows: Selectivity interaction (KinomeScan (DiscoverX)) EUB0001619a SRPK1. The following applies: at 1 µM.
For experiment [9], the target named is T2, Serine/threonine-protein kinase TNNI3K (Homo sapiens) (UniProt Q59H18).
T2 sequence (whole entry): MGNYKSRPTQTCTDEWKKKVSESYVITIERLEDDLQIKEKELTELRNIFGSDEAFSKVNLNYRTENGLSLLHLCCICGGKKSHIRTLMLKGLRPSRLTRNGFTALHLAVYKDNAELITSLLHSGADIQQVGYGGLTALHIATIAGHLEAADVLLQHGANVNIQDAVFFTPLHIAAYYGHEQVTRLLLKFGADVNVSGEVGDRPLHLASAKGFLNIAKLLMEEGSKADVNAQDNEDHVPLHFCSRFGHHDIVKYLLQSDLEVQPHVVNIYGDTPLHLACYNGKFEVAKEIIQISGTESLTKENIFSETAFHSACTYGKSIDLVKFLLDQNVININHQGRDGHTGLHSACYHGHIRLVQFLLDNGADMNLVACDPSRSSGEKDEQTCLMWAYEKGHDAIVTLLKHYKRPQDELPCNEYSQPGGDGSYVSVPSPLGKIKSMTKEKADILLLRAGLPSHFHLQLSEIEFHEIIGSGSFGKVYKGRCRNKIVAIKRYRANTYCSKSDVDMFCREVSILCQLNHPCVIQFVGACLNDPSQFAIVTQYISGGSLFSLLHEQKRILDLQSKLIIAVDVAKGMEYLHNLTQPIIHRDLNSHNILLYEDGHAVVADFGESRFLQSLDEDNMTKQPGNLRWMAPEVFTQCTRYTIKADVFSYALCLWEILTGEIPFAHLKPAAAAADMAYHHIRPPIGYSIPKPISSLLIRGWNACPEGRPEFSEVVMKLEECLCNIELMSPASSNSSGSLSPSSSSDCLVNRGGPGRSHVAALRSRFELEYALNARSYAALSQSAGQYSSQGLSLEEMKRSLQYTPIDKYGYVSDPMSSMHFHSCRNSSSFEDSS
The following applies: at 10 µM.

In experiment [10] the target is Serine/threonine-protein kinase N1 (Homo sapiens, UniProt Q16512). The experiment in a line: Selectivity interaction (KinomeScan (DiscoverX)) EUB0000695a PKN1. The settings on record: at 100 nM.
Chain of Serine/threonine-protein kinase N1 (Q16512 2-942 limits assumed): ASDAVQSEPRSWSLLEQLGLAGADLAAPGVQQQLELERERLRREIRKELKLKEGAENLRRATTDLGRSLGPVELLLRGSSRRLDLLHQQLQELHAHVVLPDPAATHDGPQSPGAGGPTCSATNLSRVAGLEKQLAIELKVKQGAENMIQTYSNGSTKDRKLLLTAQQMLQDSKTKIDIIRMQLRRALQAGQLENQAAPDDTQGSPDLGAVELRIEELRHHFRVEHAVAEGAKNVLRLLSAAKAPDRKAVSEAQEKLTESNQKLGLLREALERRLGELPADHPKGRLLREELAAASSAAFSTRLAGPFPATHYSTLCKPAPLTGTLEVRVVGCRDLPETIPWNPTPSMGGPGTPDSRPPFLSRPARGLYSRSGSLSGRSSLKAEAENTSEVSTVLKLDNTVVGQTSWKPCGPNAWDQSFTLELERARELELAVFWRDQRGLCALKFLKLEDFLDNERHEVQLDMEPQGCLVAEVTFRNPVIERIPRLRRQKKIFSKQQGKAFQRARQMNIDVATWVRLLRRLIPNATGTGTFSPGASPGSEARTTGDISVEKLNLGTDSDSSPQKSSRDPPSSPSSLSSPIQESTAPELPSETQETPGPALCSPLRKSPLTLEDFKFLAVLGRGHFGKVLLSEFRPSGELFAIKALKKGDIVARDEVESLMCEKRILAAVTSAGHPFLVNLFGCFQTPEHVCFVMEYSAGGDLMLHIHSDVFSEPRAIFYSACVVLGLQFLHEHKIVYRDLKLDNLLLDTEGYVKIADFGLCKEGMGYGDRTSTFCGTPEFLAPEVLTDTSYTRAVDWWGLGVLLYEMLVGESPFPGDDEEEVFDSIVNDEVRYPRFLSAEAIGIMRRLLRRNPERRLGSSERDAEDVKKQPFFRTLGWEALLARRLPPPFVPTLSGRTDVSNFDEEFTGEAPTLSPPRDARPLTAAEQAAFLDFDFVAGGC
Experiment [11] has as its target Protein kinase C beta type (Homo sapiens, UniProt P05771). The experiment is described as follows: Selectivity interaction (ProQinase) EUB0000171b PRKCB. The following applies: at 5 µM.
Experiment [12] has as its target Tyrosine-protein kinase Yes (Homo sapiens) (UniProt P07947). The experiment is described as follows: Selectivity interaction (KinomeScan (DiscoverX)) EUB0000092b YES1. The settings on record: at 10 µM.
In experiment [13] the target is Serine/threonine-protein kinase pim-2 (Homo sapiens, UniProt Q9P1W9). The experiment in a line: Selectivity interaction (KinomeScan (DiscoverX)) EUB0000092b PIM2. The settings on record: at 10 µM.
The test system of experiment [14] is Leucine-rich repeat serine/threonine-protein kinase 2 (Homo sapiens), Q5S007 [G2019S]. The experiment is described as follows: (§1) Selectivity interaction (KinomeScan (DiscoverX)) EUB0000618a LRRK2. The following applies: at 10 µM.
Experiment [15] has as its target Leucine-rich repeat serine/threonine-protein kinase 2 (Homo sapiens, UniProt Q5S007). The description is as §1. The following applies: at 10 µM.
Experiment [16] concerns the target Tyrosine-protein kinase Lyn (Homo sapiens, UniProt P07948). The experiment in a line: Selectivity interaction (KinomeScan (DiscoverX)) EUB0000595a LYN. The settings on record: at 10 µM.

Chain of Insulin-like growth factor 1 receptor (P08069 31-736 limits assumed): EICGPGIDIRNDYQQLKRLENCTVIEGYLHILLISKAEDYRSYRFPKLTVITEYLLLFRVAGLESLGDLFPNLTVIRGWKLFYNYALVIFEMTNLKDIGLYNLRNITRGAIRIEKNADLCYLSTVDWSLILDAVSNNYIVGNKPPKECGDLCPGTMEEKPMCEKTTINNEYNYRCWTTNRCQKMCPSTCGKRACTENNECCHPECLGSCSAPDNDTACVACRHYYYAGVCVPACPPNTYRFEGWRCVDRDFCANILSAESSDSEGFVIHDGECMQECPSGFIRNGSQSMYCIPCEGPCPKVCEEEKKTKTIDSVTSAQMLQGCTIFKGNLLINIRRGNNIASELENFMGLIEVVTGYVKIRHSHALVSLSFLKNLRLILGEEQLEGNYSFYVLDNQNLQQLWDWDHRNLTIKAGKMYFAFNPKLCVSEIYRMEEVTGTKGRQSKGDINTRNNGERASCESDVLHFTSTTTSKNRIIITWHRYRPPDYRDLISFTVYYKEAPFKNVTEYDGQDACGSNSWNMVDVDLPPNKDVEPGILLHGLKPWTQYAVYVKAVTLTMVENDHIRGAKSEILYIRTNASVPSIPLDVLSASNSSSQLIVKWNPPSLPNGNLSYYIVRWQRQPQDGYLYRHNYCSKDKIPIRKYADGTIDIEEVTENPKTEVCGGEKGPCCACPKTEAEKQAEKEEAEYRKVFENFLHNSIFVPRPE
Chain of Insulin-like growth factor 1 receptor (P08069 741-1367 limits assumed): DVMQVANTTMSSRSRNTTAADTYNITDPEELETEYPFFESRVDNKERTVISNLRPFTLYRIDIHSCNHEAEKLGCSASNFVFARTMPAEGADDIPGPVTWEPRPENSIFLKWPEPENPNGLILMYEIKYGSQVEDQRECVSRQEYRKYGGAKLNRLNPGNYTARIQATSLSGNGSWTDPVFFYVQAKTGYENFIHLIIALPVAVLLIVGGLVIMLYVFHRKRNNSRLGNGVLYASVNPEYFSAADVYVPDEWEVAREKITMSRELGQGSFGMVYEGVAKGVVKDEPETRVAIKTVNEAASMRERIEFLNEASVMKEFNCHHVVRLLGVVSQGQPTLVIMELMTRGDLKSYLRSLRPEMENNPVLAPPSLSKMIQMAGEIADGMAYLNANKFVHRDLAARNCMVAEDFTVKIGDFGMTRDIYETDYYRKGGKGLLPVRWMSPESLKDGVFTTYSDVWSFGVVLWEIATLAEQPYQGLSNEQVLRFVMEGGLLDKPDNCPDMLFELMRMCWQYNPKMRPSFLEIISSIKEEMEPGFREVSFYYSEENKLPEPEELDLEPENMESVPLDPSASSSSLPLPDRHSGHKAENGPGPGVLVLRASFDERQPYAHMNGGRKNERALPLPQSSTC
Chain of Mitogen-activated protein kinase 9 (P45984 whole entry, looked up): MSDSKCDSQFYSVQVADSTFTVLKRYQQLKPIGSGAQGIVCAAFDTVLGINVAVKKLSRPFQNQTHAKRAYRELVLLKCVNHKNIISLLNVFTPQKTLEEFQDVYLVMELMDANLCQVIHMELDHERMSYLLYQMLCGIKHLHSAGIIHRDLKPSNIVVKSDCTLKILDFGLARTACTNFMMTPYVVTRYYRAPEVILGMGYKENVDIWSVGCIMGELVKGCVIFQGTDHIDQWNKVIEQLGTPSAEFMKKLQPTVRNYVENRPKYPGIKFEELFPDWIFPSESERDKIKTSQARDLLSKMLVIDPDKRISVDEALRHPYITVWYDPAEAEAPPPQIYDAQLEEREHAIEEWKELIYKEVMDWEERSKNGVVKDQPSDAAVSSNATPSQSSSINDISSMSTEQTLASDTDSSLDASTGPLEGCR
Chain of Ribosomal protein S6 kinase alpha-3 (P51812 whole entry): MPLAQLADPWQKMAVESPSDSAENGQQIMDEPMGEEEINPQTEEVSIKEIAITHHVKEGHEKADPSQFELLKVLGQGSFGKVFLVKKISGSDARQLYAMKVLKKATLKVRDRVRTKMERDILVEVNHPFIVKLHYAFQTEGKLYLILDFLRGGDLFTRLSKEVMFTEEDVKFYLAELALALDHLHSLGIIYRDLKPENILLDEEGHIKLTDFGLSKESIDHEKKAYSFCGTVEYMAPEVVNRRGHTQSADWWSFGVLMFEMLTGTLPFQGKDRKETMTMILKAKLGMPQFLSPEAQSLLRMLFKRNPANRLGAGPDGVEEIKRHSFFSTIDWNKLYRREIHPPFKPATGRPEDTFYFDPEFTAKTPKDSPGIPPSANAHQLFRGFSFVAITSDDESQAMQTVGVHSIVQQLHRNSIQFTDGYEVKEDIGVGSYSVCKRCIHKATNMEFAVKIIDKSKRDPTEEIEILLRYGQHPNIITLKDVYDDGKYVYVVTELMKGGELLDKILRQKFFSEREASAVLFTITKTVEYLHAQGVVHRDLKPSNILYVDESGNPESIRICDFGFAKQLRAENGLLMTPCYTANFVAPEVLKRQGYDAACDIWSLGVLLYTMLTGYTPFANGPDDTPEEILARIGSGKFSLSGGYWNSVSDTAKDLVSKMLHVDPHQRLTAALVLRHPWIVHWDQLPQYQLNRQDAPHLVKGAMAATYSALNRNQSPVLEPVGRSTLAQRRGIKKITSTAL
Chain of Tyrosine-protein kinase Lyn (P07948 2-512 limits assumed): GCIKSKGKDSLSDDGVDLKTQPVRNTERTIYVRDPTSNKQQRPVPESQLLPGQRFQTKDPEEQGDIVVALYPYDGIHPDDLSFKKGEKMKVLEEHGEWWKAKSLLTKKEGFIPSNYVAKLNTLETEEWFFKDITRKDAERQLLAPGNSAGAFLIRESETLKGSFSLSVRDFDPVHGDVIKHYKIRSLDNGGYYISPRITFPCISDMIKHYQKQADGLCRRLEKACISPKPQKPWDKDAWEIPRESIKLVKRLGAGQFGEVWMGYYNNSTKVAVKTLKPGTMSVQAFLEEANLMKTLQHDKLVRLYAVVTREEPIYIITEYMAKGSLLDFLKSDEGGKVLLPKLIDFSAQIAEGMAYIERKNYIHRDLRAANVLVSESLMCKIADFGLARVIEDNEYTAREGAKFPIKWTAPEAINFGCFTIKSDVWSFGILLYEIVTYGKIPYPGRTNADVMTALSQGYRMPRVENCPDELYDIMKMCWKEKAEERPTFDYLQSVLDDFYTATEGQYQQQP

`Cn1cc(-n2cnc3c(NCc4nc5cc(Cl)c(Cl)cc5[nH]4)nc(N4CCOCC4)nc32)cn1` gave a % of control in experiment [1] of 3.73%.

In experiment [2], `C=CC(=O)Nc1ccc(C(=O)Nc2[nH]nc3c2CN(C(=O)N[C@H](CN(C)C)c2ccccc2)C3(C)C)cc1` returned a % of engagement of 12%.

Regarding `CN(C)C/C=C/C(=O)Nc1ccc(C(=O)N2CCCC(Nc3ncc(Cl)c(-c4c[nH]c5ccccc45)n3)C2)cc1` (stereo unspecified), the % of control in experiment [3] is 100%.

`O=C(NOC[C@H](O)CO)c1ccc(F)c(F)c1Nc1ccc(I)cc1F` came in with a % of control in [4] of 100%.

Regarding `Nc1cnc(N2CCc3cc(S(=O)(=O)Nc4c(F)cc(Cl)cc4F)cc(N4CCCC4=O)c32)nc1` [TP-020n], the % of control in experiment [5] was determined as 84%; in [6], 100%.

As for `CCc1cc(Nc2nccc(-c3c(-c4ccc(OC)c(C(=O)Nc5c(F)cccc5F)c4)nc4ccccn34)n2)c(OC)cc1N1CCC(N2CCN(S(C)(=O)=O)CC2)CC1`, the % of inhibition in experiment [7] is 41%.

Consider `N#Cc1cccc(-c2c[nH]c3ncnc(N4CCOCC4)c23)c1`, for which, in experiment [8], the % of control turned out to be 25%.

In [9], `CCN(CC)CCCCNc1ncc2cc(-c3cc(OC)cc(OC)c3)c(NC(=O)NC(C)(C)C)nc2n1` returned a % of control of 100%.

On to `Cc1cc(F)c(C(=O)Nc2cccc(-c3nncn3C(C)C)n2)cc1-n1cnc(C2CC2)c1`, for which the % of control in [10] stood at 83%.

Regarding `C=CC(=O)Nc1cccc(C(=O)Nc2ccc(Nc3cc(-c4[nH]c(SC)nc4C)ccn3)cc2)c1`, the % of control in experiment [11] was determined as 81%.

`CCC(=O)N1CCN(c2ccc(-n3c(=O)ccc4cnc5ccc(-c6cnc7ccccc7c6)cc5c43)cc2C(F)(F)F)CC1`: the % of control in [12] was found to be 74%; in [13] it was 62%.

With `O[C@H]1CC[C@H](Nc2ncc3nc(Nc4c(F)cc(F)cc4F)n([C@H]4CCOC4)c3n2)CC1`, the % of control was 95% in experiment [14] and 83% in experiment [15].

As for `COCC(=O)NC/C=C/c1ccc2ncnc(Nc3ccc(Oc4ccc(C)nc4)c(C)c3)c2c1` [CP-724714], the % of control in experiment [16] was found to be 92%.
